# Reference: PubChem BioAssay AID330 (DTP/NCI, 2004)
# Several values for one entry are separate records, joined by “and”; a condition that tells them apart may be missing. Equal entries are not always repeated. Inconclusive results and toxic doses are left out.
# Test system: P388 leukemia ip, CD2F1 mice, survival T/C
# Assay: NCI In Vivo Anticancer Drug Screen. Data for tumor model P388 Leukemia (intraperitoneal) in CD2F1 (CDF1) mice
# Settings: endpoint: median survival time, higher = longer survival
# In short: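 Mice carrying the transplanted tumor received test compound or vehicle. Survival was recorded in each group, and the value is the treated-group measurement divided by that of the vehicle-treated control group.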
# [1] = dose: 50.0 mg/kg/injection, schedule: Q01DX005 (ip), vehicle: Klucel (hydroxypropylcellulose) (HPC)
# [2] = dose: 100.0 mg/kg/injection, schedule: Q01DX005 (ip), vehicle: Klucel (hydroxypropylcellulose) (HPC)
# [3] = dose: 200.0 mg/kg/injection, schedule: Q01DX005 (ip), vehicle: Klucel (hydroxypropylcellulose) (HPC)
# [4] = dose: 50.0 mg/kg/injection, schedule: Q01DX009 (ip), vehicle: distilled water + Tween-80
# [5] = dose: 60.0 mg/kg/injection, schedule: Q01DX005 (ip), vehicle: saline with Tween-80
# [6] = dose: 120.0 mg/kg/injection, schedule: Q01DX005 (ip), vehicle: saline with Tween-80
# [7] = dose: 240.0 mg/kg/injection, schedule: Q01DX005 (ip), vehicle: saline with Tween-80
smiles,measurement,setting,value
CCOc1n[nH]c(-c2ccc(Cl)cc2Cl)n1,T/C,"dose: 100.0 mg/kg/injection, schedule: Q01DX001 (ip), vehicle: Klucel (hydroxypropylcellulose) (HPC)",102 % of control
same,T/C,"dose: 200.0 mg/kg/injection, schedule: Q01DX001 (ip), vehicle: Klucel (hydroxypropylcellulose) (HPC)",100 % of control
same,T/C,"dose: 400.0 mg/kg/injection, schedule: Q01DX001 (ip), vehicle: Klucel (hydroxypropylcellulose) (HPC)",101 % of control
CC1=C2CCC3(C)C(=C2OC1=O)C(C)=C(Cl)C(Cl)C3Cl (configuration not stated),T/C,[1],113 % of control
same,T/C,[2],119 % of control
same,T/C,[3],115 % of control
CNC(=O)OCc1c(COC(=O)NC)c(-c2ccc(S(=O)(=O)c3ccccc3)cc2)n(C)c1C,T/C,"dose: 12.5 mg/kg/injection, schedule: Q01DX009 (ip), vehicle: distilled water + Tween-80",154 % of control
same,T/C,"dose: 40.0 mg/kg/injection, schedule: Q01DX009 (ip), vehicle: distilled water + Tween-80",153 % of control
same,T/C,[4],100 % of control
same,T/C,"dose: 80.0 mg/kg/injection, schedule: Q01DX009 (ip), vehicle: distilled water + Tween-80",153 % of control
CCOC(=O)C1=C(SC)SC(C(=O)OCC)C2C=C(C)C=CN12 (configuration not stated),T/C,"dose: 15.0 mg/kg/injection, schedule: Q01DX005 (ip), vehicle: Klucel + Tween-80",97 % of control
same,T/C,"dose: 30.0 mg/kg/injection, schedule: Q01DX005 (ip), vehicle: Klucel + Tween-80",108 % of control
same,T/C,"dose: 60.0 mg/kg/injection, schedule: Q01DX005 (ip), vehicle: Klucel + Tween-80",104 % of control and 96 % of control
Nc1nnc(CCC(=O)Nc2cc(Cl)c(Cl)cc2Cl)n1N,T/C,[5],108 % of control
same,T/C,[6],111 % of control
same,T/C,[7],121 % of control
CC(=O)Nc1ccc(S(=O)(=O)Nc2c(N)[nH]c(=S)[nH]c2=O)cc1,T/C,[5],97 % of control
same,T/C,[6],98 % of control
same,T/C,[7],97 % of control
C=C(Cl)C(=NC(C)(C)C)Nc1cccc(Cl)c1,T/C,"dose: 6.25 mg/kg/injection, schedule: Q01DX005 (ip), vehicle: Klucel (hydroxypropylcellulose) (HPC)",112 % of control
same,T/C,"dose: 12.5 mg/kg/injection, schedule: Q01DX005 (ip), vehicle: Klucel (hydroxypropylcellulose) (HPC)",114 % of control
same,T/C,"dose: 25.0 mg/kg/injection, schedule: Q01DX005 (ip), vehicle: Klucel (hydroxypropylcellulose) (HPC)",112 % of control
same,T/C,[1],105 % of control
same,T/C,[2],115 % of control
same,T/C,[3],118 % of control
CC1=NN(C(=O)NS(=O)(=O)c2ccc(CCNC(=O)c3nccnc3N)cc2)CC1,T/C,"dose: 50.0 mg/kg/injection, schedule: Q01DX005 (ip), vehicle: saline with Tween-80",96 % of control
same,T/C,"dose: 100.0 mg/kg/injection, schedule: Q01DX005 (ip), vehicle: saline with Tween-80",105 % of control
same,T/C,"dose: 200.0 mg/kg/injection, schedule: Q01DX005 (ip), vehicle: saline with Tween-80",105 % of control
CCOC(=O)CNCc1cccnc1,T/C,"dose: 12.5 mg/kg/injection, schedule: Q04DX003 (ip), vehicle: saline",103 % of control
same,T/C,"dose: 25.0 mg/kg/injection, schedule: Q04DX003 (ip), vehicle: saline",106 % of control and 94 % of control
same,T/C,"dose: 50.0 mg/kg/injection, schedule: Q04DX003 (ip), vehicle: saline",100 % of control and 103 % of control
same,T/C,"dose: 100.0 mg/kg/injection, schedule: Q04DX003 (ip), vehicle: saline",104 % of control and 94 % of control
same,T/C,"dose: 200.0 mg/kg/injection, schedule: Q04DX003 (ip), vehicle: saline",97 % of control
NC(=O)c1cccn(-c2ccccc2)c1=S,T/C,[1],89 % of control
same,T/C,[2],105 % of control
same,T/C,[3],105 % of control
N#CC1[C@@H](C(=O)c2ccccc2)N2C=Cc3ccccc3[C@@H]2[C@H]1C#N (some centres not stated),T/C,[5],90 % of control
NC(=O)C1=C(C(=O)O)CCC1,T/C,"dose: 25.0 mg/kg/injection, schedule: Q01DX009 (ip), vehicle: distilled water + Tween-80",99 % of control
same,T/C,[4],100 % of control
same,T/C,"dose: 100.0 mg/kg/injection, schedule: Q01DX009 (ip), vehicle: distilled water + Tween-80",98 % of control
same,T/C,"dose: 200.0 mg/kg/injection, schedule: Q01DX009 (ip), vehicle: distilled water + Tween-80",96 % of control
same,T/C,"dose: 400.0 mg/kg/injection, schedule: Q01DX009 (ip), vehicle: distilled water + Tween-80",92 % of control
